Measurements from patent publication US6410558B1, “Fungicides for the control of take-all disease of plants” (Monsanto Technology LLC, priority 1991, dated 2002).

Columns and labels:
Ggt = assay: In vivo Assay: control of Ggt on wheat grown in pots of Ggt-infested soil, root disease rating; parameters: species or system Gaeumannomyces graminis var. tritici; settings: 0.5 mg active ingredient per pot, 'Bergen' or 'Anza' wheat in Ggt-infested soil, after four weeks, vs untreated control; for pest or weed control at 0.5 mg/pot: Gaeumannomyces graminis, 672 h, read-out: In vivo, percent disease control
How it was run: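 Wheat ('Bergen' or 'Anza') seeds in soil infested with Ggt-colonised oats (4% v/v) treated at 0.5 mg active ingredient per pot in acetone/water with Tween 20; five pots per treatment. After four weeks, seminal roots rated 0–5; trimmed mean of three replicates converted to percent disease control versus untreated.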

[1] = system: Gaeumannomyces graminis var. tritici (Ggt); assay: In vitro Assay: mycelial growth of Ggt on minimal media agar plates containing test compound; format: cell-based; settings: dark, 19-20° C., 4 to 5 days, diameter of mycelial growth; for inhibition at 0.1 ppm / inhibition at 1 ppm / inhibition at 10 ppm: Gaeumannomyces graminis; for inhibition at 0.1 ppm: read-out: In vitro (ppm) 0.1, Percent Inhibition; for inhibition at 1 ppm: read-out: In vitro (ppm) 1, Percent Inhibition; for inhibition at 10 ppm: read-out: In vitro (ppm) 10, Percent Inhibition
How it was run: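 Compounds added from acetone stock into minimal (Czapek Dox) agar; plates inoculated with three 4-mm Ggt plugs, incubated in dark at 19-20° C for 4 to 5 days. Colony diameter measured; Percent Inhibition = [1-((treated mm −4)/(control mm −4))]×100.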

Row | Compound | pest or weed control at 0.5 mg/pot (Ggt) [%] | melting point [°C] | inhibition at 0.1 ppm ([1]; 0.1 ppm in minimal media agar) [%] | inhibition at 1 ppm ([1]; 1 ppm in minimal media agar) [%] | inhibition at 10 ppm ([1]; 10 ppm in minimal media agar) [%] | In vivo, percent disease control (Ggt) [%] | In vitro (ppm) 0.1, Percent Inhibition ([1]; 0.1 ppm in minimal media agar) [%] | In vitro (ppm) 1, Percent Inhibition ([1]; 1 ppm in minimal media agar) [%] | In vitro (ppm) 10, Percent Inhibition ([1]; 10 ppm in minimal media agar) [%]
1 | CC(CCl)NC(=O)c1c(Cl)cccc1[Si](C)(C)C (stereo not drawn) [Example 171, 2-Chloro-N-(2-chloro-1-methylethyl)-6-(trimethylsilyl)benzamide] | 87 | 150 to 151 | 48 | 88 | 97 |  |  |  | 
2 | CCN(CC)C(=O)c1c(C(F)(F)F)ccc(C(F)(F)F)c1[Si](C)(C)C [Example 62, N,N-Diethyl-2-(trimethylsilyl)-3,6-bis(trifluoromethyl)benzamide] | 9 |  | 8 | 3 | 69 |  |  |  | 
3 | C[Si](C)(C)c1cccc(Cl)c1C(=O)N1CCCCC1 [Example 134, N-[2-Chloro-6-(trimethylsilyl)benzoyl]-piperidine] | < 0 |  | < 0 | 3 | 39 |  |  |  | 
4 | CCN(CC)C(=O)c1c(Cl)ccc(F)c1[Si](C)(C)C [Example 38, 6-Chloro-N,N-diethyl-3-fluoro-2-(trimethylsilyl)benzamide] | 95 |  | 53 | 79 | 100 |  |  |  | 
5 | C=CCNC(=O)c1c(Cl)cccc1[Si](C)(C)C [Example 106, 2-Chloro-N-2-propenyl-6-(trimethylsilyl)benzamide] | 100 |  | 95 | 95 | 97 |  |  |  | 
6 | C[Si](C)(C)c1cccc(Cl)c1C(=O)NCCCl [Example 29, 2-Chloro-N-(2-chloroethyl)-6-(trimethylsilyl)benzamide] | 97 |  | 100 | 100 | 100 |  |  |  | 
7 | CCNC(=O)c1c([Si](C)(C)C)sc(C)c1C [Example 271, 4,5-Dimethyl-N-ethyl-2-(trimethylsilyl)-3-thiophenecarboxamide] | 97 |  | 95 | 100 | 100 |  |  |  | 
8 | CCN(CC)C(=O)c1c(Cl)cccc1[Si](C)(C)CCl [Example 69, N,N-Diethyl-2-chloro-6-[(chloromethyl)dimethylsilyl]benzamide] | 67 |  | 51 | 81 | 100 |  |  |  | 
9 | CCN(C(=O)OC(C)(C)C)C(=O)c1c(Cl)cccc1[Si](C)(C)C [Example 211, [2-Chloro-6-(trimethylsilyl)benzoyl]ethylcarbamic acid, 1,1-dimethylethyl ester] | 96 |  | < 0 | 82 | 90 |  |  |  | 
10 | CSNC(=O)c1c(Cl)cccc1[Si](C)(C)C [Example 174, 2-Chloro-N-(methylthio)-6-(trimethylsilyl)benzamide] | 0 |  | 12 | 65 |  |  |  |  | 
11 | CC1(c2cccc(F)c2C(=O)NCCCl)CCC1 [Example 199, N-(2-Chloroethyl)-2-fluoro-6-(1-methylcyclobutyl)benzamide] |  | 108 to 110 |  |  |  |  |  |  | 
12 | CCCCCCCCNC(=O)c1c(Cl)cccc1[Si](C)(C)C [Example 17, 2-Chloro-N-octyl-6-(trimethylsilyl)-benzamide] | < 0 |  | 59 | 64 | 64 |  |  |  | 
13 | CCCN(C(=O)c1c(Cl)cccc1[Si](C)(C)C)C(C)C [Example 95, 2-Chloro-N-(1-methylethyl)-N-propyl-6-(trimethylsilyl)benzamide] | 63 |  | < 0 | 62 | 100 |  |  |  | 
14 | C=C[Si](C)(c1ccccc1)c1cccc(Cl)c1C(=O)NCC (stereo not drawn) [Example 202, 2-Chloro-6-(ethenylmethylphenylsilyl)-N-ethylbenzamide] | 3 |  | 33 | 58 | 88 |  |  |  | 
15 | CCN(CC)C(=O)c1c(Cl)cccc1[Si](C)(C)c1ccccc1 [Example 67, N,N-Diethyl-2-chloro-6-(dimethylphenylsilyl)benzamide] | < 0 |  | < 0 | 19 | 100 |  |  |  | 
16 | 2-N,N-dipropyl-6-(trimethylsilyl)benzamide [Example 14] |  |  |  |  |  | 92 | 7 | 40 | 79
17 | C=CC[Si](C)(C)c1cccc(Cl)c1C(=O)NCC [Example 179, 2-Chloro-6-(dimethyl-2-propenylsilyl)-N-ethylbenzamide] | 97 |  | 85 | 88 | 91 |  |  |  | 
18 | CCNC(=O)c1ccccc1[Si](C)(C)C [Example 49, N-Ethyl-2-(trimethylsilyl)benzamide] | 97 |  | 100 | 100 | 100 |  |  |  | 
